Results published in patent US6440970B1, “Pharmaceutical compositions and methods for use” (Targacept, Inc., priority 2000, dated 2002).

What was measured:
[1] = target: muscle-type nicotinic acetylcholine receptors (Homo sapiens, UniProt P02708+P07510+P11230+Q07001); assay: Determination of interaction with muscle receptors; type: cell-based; details: at a concentration of 100 uM; percentage of maximal activation induced by (S)-(-)-nicotine
Method: Determination of Interaction with Muscle Receptors
(§1) The determination of the interaction of the compounds with muscle receptors was carried out in accordance with the techniques described in U.S. Pat. No. 5,597,919 to Dull et al. The maximal activation for individual compounds (Emax) was determined as a percentage of the maximal activation induced by (S)-(−)-nicotine. Reported Emax values represent the amount released relative to (S)-(−)-nicotine on a percentage basis.

[2] = tested on: ganglionic-type nicotinic acetylcholine receptors; assay: Determination of interaction with ganglion receptors; type: cell-based; details: at a concentration of 100 uM; percentage of maximal activation induced by (S)-(-)-nicotine
Method: Determination of Interaction with Ganglion Receptors
as §1, with “ganglionic” for “muscle”

[3] = target: CNS nicotinic receptors; assay: Determination of binding to relevant receptor sites; details: inhibition constant calculated from IC50 by the method of Cheng et al.
Method: Determination of Binding to Relevant Receptor Sites
Binding of the compounds to relevant receptor sites was determined in accordance with the techniques described in U.S. Pat. No. 5,597,919 to Dull et al. Inhibition constants (Ki values), reported in nM, were calculated from the IC50 values using the method of Cheng et al., Biochem, Pharmacol. 22:3099 (1973).

Sequence of muscle-type nicotinic acetylcholine receptors (P02708 whole entry): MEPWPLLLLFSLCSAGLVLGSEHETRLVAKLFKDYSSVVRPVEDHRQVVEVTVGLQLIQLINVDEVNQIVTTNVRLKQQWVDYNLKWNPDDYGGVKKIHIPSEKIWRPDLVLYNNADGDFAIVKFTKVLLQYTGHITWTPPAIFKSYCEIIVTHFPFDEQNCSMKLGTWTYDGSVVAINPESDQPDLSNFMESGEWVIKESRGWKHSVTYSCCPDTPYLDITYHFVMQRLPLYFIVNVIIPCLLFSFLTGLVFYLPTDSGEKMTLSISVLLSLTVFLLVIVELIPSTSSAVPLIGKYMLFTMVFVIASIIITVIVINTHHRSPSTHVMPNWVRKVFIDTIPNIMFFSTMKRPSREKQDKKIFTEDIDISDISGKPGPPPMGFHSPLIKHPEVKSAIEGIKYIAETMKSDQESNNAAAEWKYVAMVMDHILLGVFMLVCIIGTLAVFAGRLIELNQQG
Sequence of muscle-type nicotinic acetylcholine receptors (P11230 24-501): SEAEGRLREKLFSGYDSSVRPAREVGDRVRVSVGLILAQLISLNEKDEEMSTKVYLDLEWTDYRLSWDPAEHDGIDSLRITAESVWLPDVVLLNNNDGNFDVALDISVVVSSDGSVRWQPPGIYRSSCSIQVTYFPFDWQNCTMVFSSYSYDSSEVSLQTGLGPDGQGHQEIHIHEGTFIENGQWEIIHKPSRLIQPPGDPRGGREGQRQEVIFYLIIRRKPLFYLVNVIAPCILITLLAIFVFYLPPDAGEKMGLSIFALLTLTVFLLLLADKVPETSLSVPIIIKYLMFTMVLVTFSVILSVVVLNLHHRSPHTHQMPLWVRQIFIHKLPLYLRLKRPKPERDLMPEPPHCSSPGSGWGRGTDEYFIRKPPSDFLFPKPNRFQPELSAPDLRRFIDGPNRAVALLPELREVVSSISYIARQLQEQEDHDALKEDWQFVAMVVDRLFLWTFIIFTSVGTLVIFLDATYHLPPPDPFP
Sequence of muscle-type nicotinic acetylcholine receptors (P07510 23-517): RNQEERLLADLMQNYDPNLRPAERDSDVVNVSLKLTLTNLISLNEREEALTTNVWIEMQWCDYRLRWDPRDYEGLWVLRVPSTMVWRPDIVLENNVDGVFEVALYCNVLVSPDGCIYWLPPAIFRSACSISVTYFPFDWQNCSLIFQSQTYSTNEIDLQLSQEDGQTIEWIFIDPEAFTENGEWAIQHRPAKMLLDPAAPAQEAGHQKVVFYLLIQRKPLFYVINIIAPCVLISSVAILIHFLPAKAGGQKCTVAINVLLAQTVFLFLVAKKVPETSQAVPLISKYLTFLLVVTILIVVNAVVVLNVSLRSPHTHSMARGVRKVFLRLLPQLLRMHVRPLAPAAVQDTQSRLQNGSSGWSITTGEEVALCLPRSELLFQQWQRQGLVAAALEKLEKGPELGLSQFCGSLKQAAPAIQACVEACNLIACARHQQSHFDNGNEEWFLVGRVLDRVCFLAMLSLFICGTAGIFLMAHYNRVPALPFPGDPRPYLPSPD
Sequence of muscle-type nicotinic acetylcholine receptors (Q07001 22-517): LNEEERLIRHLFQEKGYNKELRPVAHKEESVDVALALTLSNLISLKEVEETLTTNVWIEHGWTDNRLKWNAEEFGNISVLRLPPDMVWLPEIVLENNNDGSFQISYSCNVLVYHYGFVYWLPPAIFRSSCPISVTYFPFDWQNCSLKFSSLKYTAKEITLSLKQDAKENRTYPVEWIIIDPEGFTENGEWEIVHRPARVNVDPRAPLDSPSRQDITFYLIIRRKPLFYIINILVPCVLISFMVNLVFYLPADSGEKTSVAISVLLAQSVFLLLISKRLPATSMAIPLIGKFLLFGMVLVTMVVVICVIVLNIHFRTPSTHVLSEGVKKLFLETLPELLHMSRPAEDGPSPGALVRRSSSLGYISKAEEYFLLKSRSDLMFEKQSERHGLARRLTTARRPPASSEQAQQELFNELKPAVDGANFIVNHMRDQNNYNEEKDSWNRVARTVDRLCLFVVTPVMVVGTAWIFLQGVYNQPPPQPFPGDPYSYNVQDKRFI

## Brc1cncc(N2C[C@@H]3C[C@H]2CN3)c1 [Sample No. 1, (1S,4S)-(5-bromo-3-pyridyl)-2,5-diazabicyclo[2.2.1]heptane]
[1]
  Emax at muscle-type receptors: 0%
[2]
  Emax at ganglionic-type receptors: 5%
[3]
  Ki: 56 nM

## (1S,4S)-(5-(4-methoxyphenoxy)-3-pyridyl)-2,5-diazabicyclo[2.2.1]heptane hemigalactarate [Sample No. 2]
[1]
  Emax at muscle-type receptors: 12%
[2]
  Emax at ganglionic-type receptors: 11%

## (1S,4S)-(5-pyrimidinyl)-2,5-diazabicyclo[2.2.1]heptane hemigalactarate [Sample No. 3]
[1]
  Emax at muscle-type receptors: 100%
[2]
  Emax at ganglionic-type receptors: 11%

## (1S,4S)-(6-chloro-3-pyridazinyl)-2,5-diazabicyclo[2.2.1]heptane hemigalactarate [Sample No. 4]
[1]
  Emax at muscle-type receptors: 0%
[2]
  Emax at ganglionic-type receptors: 28%
